Drawing on US20240383922A1, “KRAS Modulating Compounds” (Gilead Sciences, Inc., priority 2023, published 2024), this text covers IC50 and EC50 for 10 molecules.

One assay concerns the target GDP-loaded KRAS-G12V (Homo sapiens (Human), UniProt P01116, G12V). Description: KRAS (GDP) biochemical TR-FRET probe displacement assay, KRAS-G12V. It is filed as binding. The conditions noted are these: 2 hours. As to the method:
(§1) KRAS (GDP) Biochemical Assays:
(§2) Compounds were serially diluted (1:3) in DMSO. The LabCyte ECHO Acoustic dispenser was used to pre-spot the assay plates (384-well Non-Binding Surface plates, Corning, Catalog #3824) with 50 nL of compound. 5 μL of 2× enzyme concentration was added to the pre-spotted plates and incubated for 30 minutes before adding 5 μL of 2× concentration of Eu-streptavidin and Cy-5 labelled probe (10 μL final reaction volume). The plates were incubated at room temperature for 2 hours before measuring TR-FRET ratio (665 nm/615 nm) on the Envision multimode plate reader. The ratios were normalized to a positive (saturating concentration of known inhibitor) and negative (DMSO) control and plotted against the log of compound concentration.

Assay [1] has as its system cellular pERK in ASPC-1 (KRAS G12D) cell-line. Description: Cell based pERK assay (HTRF), ASPC-1. The conditions noted are these: Homo sapiens, ASPC1; ASPC-1 (KRAS G12D) cells, 2 hours incubation. The method in brief:
(§3)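 Cells were seeded overnight (5000 AsPC-1; 7500 MIA-PaCa-2, NCI-H441 or Kuramochi) and then exposed to 1:3 compound dilutions for 2 h at 37 °C. Lysates were read by HTRF phospho-ERK1/2 (665/615 nm ratio) after overnight incubation at room temperature. IC50 came from sigmoidal fits normalized to DMSO and a saturating reference inhibitor.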
(In general: In TR-FRET formats the signal depends on donor and acceptor labels being close together.)

For assay [2], the system named is cellular pERK in Kuramochi (WT KRAS) cell-line. Description: Cell based pERK assay (HTRF), Kuramochi. As to conditions: Kuramochi (WT KRAS) cells, 2 hours incubation. The method in brief: as §3
Assay [3] addresses GDP-loaded wild-type KRAS (WT) (Homo sapiens (Human), UniProt P01116). Description: KRAS (GDP) biochemical TR-FRET probe displacement assay, WT KRAS. The assay is classed as binding. As to conditions: 2 hours. As to the method: as §1, §2
Another assay has as its target GDP-loaded KRAS-G12D (Homo sapiens (Human), UniProt P01116, G12D). Description: KRAS (GDP) biochemical TR-FRET probe displacement assay, KRAS-G12D. The assay is classed as binding. As to conditions: 2 hours. Here is the method: as §1, §2
Another assay has as its target GDP-loaded KRAS-G12C (Homo sapiens (Human), UniProt P01116, G12C). Nature of the assay: KRAS (GDP) biochemical TR-FRET probe displacement assay, KRAS-G12C. It is filed as binding. The conditions noted are these: 2 hours. As to the method: as §1, §2
For assay [4], the system named is cellular pERK in MIA-PaCa-2 (KRAS-G12C) cell-line. Description: Cell based pERK assay (HTRF), MIA-PaCa-2. The conditions noted are these: Homo sapiens; MIA-PaCa-2 (KRAS-G12C) cells, 2 hours incubation; read-out: MIAPaCa2 pERK EC50. The method in brief: as §3
For assay [5], the system named is cellular pERK in NCI-H441 (KRAS-G12V) cell-line. Description: Cell based pERK assay (HTRF), NCI-H441. As to conditions: Homo sapiens; NCI-H441 (KRAS-G12V) cells, 2 hours incubation. The method in brief: as §3

pEC50, pIC50: −log10 of the molar value.

Chain of GDP-loaded KRAS-G12D (P01116-2 other isoform, or with tags, fused parts or gaps G12D): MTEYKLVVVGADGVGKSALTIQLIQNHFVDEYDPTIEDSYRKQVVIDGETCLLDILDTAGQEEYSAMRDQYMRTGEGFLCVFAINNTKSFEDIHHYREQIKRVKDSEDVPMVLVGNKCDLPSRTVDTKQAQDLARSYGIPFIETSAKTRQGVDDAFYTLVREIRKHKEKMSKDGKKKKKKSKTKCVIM
Chain of GDP-loaded KRAS-G12C (P01116-2 other isoform, or with tags, fused parts or gaps G12C): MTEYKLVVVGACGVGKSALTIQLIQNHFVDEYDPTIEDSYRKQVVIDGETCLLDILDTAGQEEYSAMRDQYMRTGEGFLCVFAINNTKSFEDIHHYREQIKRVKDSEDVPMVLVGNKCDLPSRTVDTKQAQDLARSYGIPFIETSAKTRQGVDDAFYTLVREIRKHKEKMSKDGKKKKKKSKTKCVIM
Chain of GDP-loaded KRAS-G12V (P01116-2 other isoform, or with tags, fused parts or gaps G12V): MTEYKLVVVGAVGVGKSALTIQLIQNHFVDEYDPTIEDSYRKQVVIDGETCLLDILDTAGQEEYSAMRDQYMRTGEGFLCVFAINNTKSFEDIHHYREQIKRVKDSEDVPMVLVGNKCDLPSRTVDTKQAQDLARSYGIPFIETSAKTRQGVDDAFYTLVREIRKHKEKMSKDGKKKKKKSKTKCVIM
Chain of GDP-loaded wild-type KRAS (WT) (P01116-2 other isoform, or with tags, fused parts or gaps): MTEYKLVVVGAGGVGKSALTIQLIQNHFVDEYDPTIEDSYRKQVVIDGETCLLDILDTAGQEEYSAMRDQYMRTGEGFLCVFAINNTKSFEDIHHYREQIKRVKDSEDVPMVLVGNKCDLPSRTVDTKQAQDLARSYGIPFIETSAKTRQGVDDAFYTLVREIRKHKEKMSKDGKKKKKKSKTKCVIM

What is called pIC50 is the IC50 on a negative log10 scale, so that one unit is a factor of ten. A low value points to a large IC50. The term pEC50 denotes the EC50 on a negative log10 scale, so that one unit is a factor of ten. As for `C#Cc1c(F)ccc2cc(O)cc(-c3nc4c5c(nc(OC[C@@]67CCCN6C[C@H](F)C7)nc5c3F)N3CCOCCC3CC4)c12` (mixture of isomers) [Example 6-13], the negative-log IC50 (pIC50) was 10.00 on GDP-loaded KRAS-G12V, 10.22 in assay [3], 9.82 on GDP-loaded KRAS-G12D and 10.22 on GDP-loaded KRAS-G12C. Besides, the pEC50 is 7.93 in assay [1], 8.80 in assay [2], 9.64 in assay [4] and 8.67 in assay [5].

Consider `C#Cc1c(F)ccc2cc(O)cc(-c3c(F)c4c5c(nc(OC[C@@]67CCCN6C[C@H](F)C7)nc5c3F)N3CCCOC[C@@H]3CC4)c12` (mixture of isomers) [Example 6-21], for which the pIC50 on GDP-loaded KRAS-G12V was 9.40; in assay [3] it was 9.06; on GDP-loaded KRAS-G12D, 9.06; at GDP-loaded KRAS-G12C it was 9.27. In addition, the pEC50 is 8.51 in assay [1], 8.23 in assay [2], 8.97 in assay [4] and 8.75 in assay [5].

For the molecule `C#Cc1c(F)ccc2cccc(-c3nc4c5c(nc(OC[C@@]67CCCN6[C@H](COc6cc(C(F)(F)F)ncn6)CC7)nc5c3F)N3CCCOC[C@@H]3CC4)c12` [Example 6-15], the pIC50 on GDP-loaded KRAS-G12V was 7.53; in assay [3], 7.17; on GDP-loaded KRAS-G12D, 7.42; on GDP-loaded KRAS-G12C, 7.44. Also, the negative-log EC50 (pEC50) in assay [1] was less than 6.07; in assay [2], 6.64; in assay [4] it was 6.39; in assay [5], less than 6.13.

As for `C#Cc1c(F)ccc2cc(O)cc(-c3nc4c5c(nc(OC[C@@]67CCCN6C[C@H](F)C7)nc5c3F)N3CCOCC[C@@H]3CC4)c12` (single isomer, unassigned) [Example 9-2], the pIC50 was 10.00 at GDP-loaded KRAS-G12V, 10.22 in assay [3], 9.82 on GDP-loaded KRAS-G12D and 10.22 on GDP-loaded KRAS-G12C. Besides, the pEC50 is 7.93 in assay [1], 8.80 in assay [2], 9.64 in assay [4] and 8.67 in assay [5].

On to `C#Cc1c(F)ccc2cccc(-c3nc4c5c(nc(OC[C@@]67CCCN6[C@H](COC(=O)N6CCCCC6)CC7)nc5c3F)N3CCCOC[C@@H]3CC4)c12` [Example 16-2], for which the pIC50 is 9.70 on GDP-loaded KRAS-G12V, 9.77 in assay [3], 9.62 on GDP-loaded KRAS-G12D and 9.72 at GDP-loaded KRAS-G12C. For the same molecule, the pEC50 in assay [1] is 9.21; in assay [2] it was 8.70; in assay [4] it was 9.55; in assay [5], 9.25.

Regarding `C#Cc1c(F)ccc2cc(O)cc(-c3nc4c5c(nc(OC[C@@]67CCCN6[C@H](COc6cc(C(F)(F)F)cnn6)CC7)nc5c3F)N3CCCOC[C@@H]3C=C4C)c12` [Example 18-2], the pIC50 on GDP-loaded KRAS-G12V is 9.38; in assay [3], 9.44; at GDP-loaded KRAS-G12D, 9.19; at GDP-loaded KRAS-G12C, 9.31. Besides, the pEC50 in assay [1] was 8.86; in assay [2], 8.44; in assay [4] it was 9.09; in assay [5], 8.98.

For `C#Cc1c(F)ccc2cc(N)cc(-c3c(F)c4c5c(nc(OC[C@@]67CCCN6C[C@H](F)C7)nc5c3F)N3CCCOC[C@@H]3CC4)c12` [Example 7-12], the negative-log IC50 (pIC50) on GDP-loaded KRAS-G12V was 7.80; in assay [3] it was 7.52; on GDP-loaded KRAS-G12D, 7.61; on GDP-loaded KRAS-G12C, 8.34. Moreover, the pEC50 in assay [1] was 6.98; in assay [2], 8.10; in assay [4], 8.09; in assay [5] it was 7.49.

With `C#Cc1c(F)ccc2cc(O)cc(-c3nc4c5c(nc(OCC6(CN7CCCCC7)CC6)nc5c3F)N3CCCOC[C@@H]3CC4)c12` [Example 15-1, (S)-5-ethynyl-6-fluoro-4-(1-fluoro-12-((1-(piperidin-1-ylmethyl)cyclopropyl)methoxy)-4,5,5a,6,9,10-hexahydro-8H-7-oxa-3,10a,11,13-tetraazanaphtho[1,8-ab]heptalen-2-yl)naphthalen-2-ol], the negative-log IC50 (pIC50) at GDP-loaded KRAS-G12V was 7.32; in assay [3], 7.16; at GDP-loaded KRAS-G12D, 7.25; at GDP-loaded KRAS-G12C, 7.43. The pEC50 was 6.18 in assay [1], 6.74 in assay [2], 6.66 in assay [4] and 6.24 in assay [5].

As to `C#Cc1c(F)ccc2cc(N)cc(-c3nc4c5c(nc(OC[C@@]67CCCN6[C@H](COc6nccnc6C(F)F)CC7)nc5c3F)N3CCCOC[C@@H]3CC4)c12` [Example 7-6], the pIC50 at GDP-loaded KRAS-G12V was 8.92; in assay [3] it was 8.71; on GDP-loaded KRAS-G12D it was 8.50; at GDP-loaded KRAS-G12C, 8.96. Also, the pEC50 in assay [1] was 7.49; in assay [2] it was 8.38; in assay [4], 8.41; in assay [5] it was 7.93.

`C#Cc1c(F)ccc2cc(N)cc(-c3nc4c5c(nc(OC[C@@]67CCCN6C[C@H](F)C7)nc5c3F)N3CCCOC[C@@H]3CC4)c12` [Example 7-1, 5-ethynyl-6-fluoro-4-((S)-1-fluoro-12-(((2R,7aS)-2-fluorotetrahydro-1H-pyrrolizin-7a(5H)-yl)methoxy)-4,5,5a,6,9,10-hexahydro-8H-7-oxa-3,10a,11,13-tetraazanaphtho[1,8-ab]heptalen-2-yl) naphthalen-2-amine]: the pIC50 on GDP-loaded KRAS-G12V is 8.75; in assay [3] it was 8.41; on GDP-loaded KRAS-G12D, 8.56; at GDP-loaded KRAS-G12C, 9.05. In addition, the pEC50 in assay [1] was 7.75; in assay [2], 8.68; in assay [4] it was 8.39; in assay [5] it was 8.35.
